Experimental data reported in patent US20250084177A1, “ANTI-CD98 ANTIBODIES AND USES THEREOF” (HUAHUI HEALTH LTD., priority 2021, published 2025).

Biological target: T1, LAT1/CD98 heterodimer HAT complex (Homo sapiens, UniProt P08195+Q01650)
T1 construct: in the tumor cell lines earlier found to be highly sensitive to S1-F4 treatment; endogenous in cells
Assay: Amino acid (HPG) uptake assay
Type: cell-based
Settings: HepG2 and Raji cells; antibody 15 μg/ml, BCH 10 mM
Description: Cells were incubated with 15 μg/ml antibody for 24 hr in growth medium. Then they were equilibrated for 30 min at 37° C. with Met-free DMEM. HPG (Thermo Fisher Scientific) was added to the cells at a final concentration of 70 μM. […] After 2-3 hr, cells were washed with PBS and lysed with lysis buffer (1% SDS in 50 mM Tris-HCL, pH 8.0) with complete protease inhibitors (Roche). HPG in cell lysis was biotinylated according to manufacturer instructions (Thermo Fisher Scientific). Then cell lysis was transferred into 96 well plate (Nunc, MaxiSorp™) and incubated at 4° C. overnight. The amount of HGP in cell lysates was then detected by streptavidin-HRP (Thermo Fisher Scientific) in an ELISA-based assay.
Amino acid uptake assay was conducted to analyze the effect of S1-F4 in amino acid transport. L-Homopropargylglycine (HPG), a methionine mimic, was used as a traceable substrate for the LAT1 (L-type/large neutral amino acid transporter 1)/CD98 heterodimer HAT complex, and the LAT1/CD98 complex inhibitor BCH (2-amino-2-norbornane-carboxylic acid) was used as a positive control for disrupting transport function.

T1 sequence (P08195 103-630 limits assumed): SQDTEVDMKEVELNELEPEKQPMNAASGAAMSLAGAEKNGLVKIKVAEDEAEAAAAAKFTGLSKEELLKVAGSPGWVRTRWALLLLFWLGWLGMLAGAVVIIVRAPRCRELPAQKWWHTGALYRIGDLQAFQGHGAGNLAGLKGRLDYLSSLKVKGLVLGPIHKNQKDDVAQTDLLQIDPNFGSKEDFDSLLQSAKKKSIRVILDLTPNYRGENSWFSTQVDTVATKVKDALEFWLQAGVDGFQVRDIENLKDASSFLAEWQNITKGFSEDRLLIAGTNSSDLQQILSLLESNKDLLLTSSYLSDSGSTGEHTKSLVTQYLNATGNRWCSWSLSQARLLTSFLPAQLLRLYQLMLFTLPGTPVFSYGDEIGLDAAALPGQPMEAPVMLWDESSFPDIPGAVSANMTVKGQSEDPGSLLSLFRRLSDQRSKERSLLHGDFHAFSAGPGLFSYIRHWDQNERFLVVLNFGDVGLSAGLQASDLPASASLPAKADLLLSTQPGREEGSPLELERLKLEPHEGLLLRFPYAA
T1 sequence (Q01650 whole entry): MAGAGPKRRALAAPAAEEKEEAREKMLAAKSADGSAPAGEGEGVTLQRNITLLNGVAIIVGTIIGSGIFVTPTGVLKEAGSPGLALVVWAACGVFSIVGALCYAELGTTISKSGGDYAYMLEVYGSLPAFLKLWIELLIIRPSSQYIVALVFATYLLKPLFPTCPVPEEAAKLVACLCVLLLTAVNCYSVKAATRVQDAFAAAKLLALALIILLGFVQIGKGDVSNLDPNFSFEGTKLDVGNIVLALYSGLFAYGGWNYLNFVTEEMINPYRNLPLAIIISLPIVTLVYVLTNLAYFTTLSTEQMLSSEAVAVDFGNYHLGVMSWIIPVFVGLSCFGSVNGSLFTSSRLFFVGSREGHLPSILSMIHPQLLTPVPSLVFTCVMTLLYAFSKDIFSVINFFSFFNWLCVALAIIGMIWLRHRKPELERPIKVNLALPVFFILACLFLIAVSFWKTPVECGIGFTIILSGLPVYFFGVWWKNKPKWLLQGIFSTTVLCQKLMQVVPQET

NC1(C(=O)O)CC2CCC1C2 (stereo not shown) [BCH, 2-amino-2-norbornane-carboxylic acid]
HPG uptake / HAT complex transport activity: impaired HAT complex transport activity
